Each structure is given as a SMILES string.

Experiment in all cases: ChaCha beta-arrestin/TEV-release GFP reporter in HEK293T cells
Holding throughout (format): cell-based

Test [1] addresses T1, LPAR1 (Homo sapiens, UniProt Q92633).
T1 construct: LPAR1-V2-TEVp; with ARRB2 (ARRB2-TCS-dCas9-VPR)

Test [2] addresses T2, kappa opioid receptor DREADD (KORD) (Homo sapiens, UniProt P41145, D138N).
T2 construct: gene OPRK1; KORD-V2-TEVp; with ARRB2 (ARRB2-TCS-dCas9-VPR)

Test [3] has as its target T3, TRHR (Homo sapiens, UniProt P34981).
T3 construct: TRHR-V2-TEVp; with ARRB2 (ARRB2-TCS-dCas9-VPR)

T3 sequence (P34981 whole entry): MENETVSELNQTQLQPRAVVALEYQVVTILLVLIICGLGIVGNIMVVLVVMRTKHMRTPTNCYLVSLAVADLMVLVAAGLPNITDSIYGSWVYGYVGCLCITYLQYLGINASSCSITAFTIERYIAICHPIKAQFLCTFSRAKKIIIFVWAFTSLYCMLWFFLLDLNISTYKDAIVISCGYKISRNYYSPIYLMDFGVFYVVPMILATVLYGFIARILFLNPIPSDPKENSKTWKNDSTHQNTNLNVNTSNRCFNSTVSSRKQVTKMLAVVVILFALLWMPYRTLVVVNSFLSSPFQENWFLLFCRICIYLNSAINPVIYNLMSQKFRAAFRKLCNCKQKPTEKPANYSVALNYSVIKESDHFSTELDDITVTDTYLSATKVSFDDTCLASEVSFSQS
T3 sequence (P32121 whole entry partner): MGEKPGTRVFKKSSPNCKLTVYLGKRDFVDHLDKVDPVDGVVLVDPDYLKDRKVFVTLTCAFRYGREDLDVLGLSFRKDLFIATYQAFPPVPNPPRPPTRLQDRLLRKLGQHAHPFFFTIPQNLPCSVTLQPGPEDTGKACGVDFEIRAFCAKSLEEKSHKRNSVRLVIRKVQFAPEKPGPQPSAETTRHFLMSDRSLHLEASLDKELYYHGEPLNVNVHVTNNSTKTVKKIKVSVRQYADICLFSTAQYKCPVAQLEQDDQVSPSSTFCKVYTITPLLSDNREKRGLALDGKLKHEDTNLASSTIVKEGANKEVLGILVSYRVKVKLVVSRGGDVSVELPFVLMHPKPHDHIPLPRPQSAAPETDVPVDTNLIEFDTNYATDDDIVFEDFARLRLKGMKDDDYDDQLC
T1 sequence (Q92633 whole entry): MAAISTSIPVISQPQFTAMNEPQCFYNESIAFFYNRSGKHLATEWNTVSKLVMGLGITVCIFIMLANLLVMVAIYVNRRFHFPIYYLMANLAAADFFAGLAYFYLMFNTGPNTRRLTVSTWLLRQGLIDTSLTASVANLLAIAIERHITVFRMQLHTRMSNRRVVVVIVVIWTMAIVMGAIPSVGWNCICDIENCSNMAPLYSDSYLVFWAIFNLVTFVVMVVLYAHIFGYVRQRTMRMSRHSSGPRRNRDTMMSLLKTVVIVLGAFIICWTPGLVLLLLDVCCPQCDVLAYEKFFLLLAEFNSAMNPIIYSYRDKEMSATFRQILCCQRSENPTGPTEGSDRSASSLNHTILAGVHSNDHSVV
T1 sequence (P32121 whole entry partner): as the sequence (P32121 whole entry partner) above
T2 sequence (P41145 whole entry D138N): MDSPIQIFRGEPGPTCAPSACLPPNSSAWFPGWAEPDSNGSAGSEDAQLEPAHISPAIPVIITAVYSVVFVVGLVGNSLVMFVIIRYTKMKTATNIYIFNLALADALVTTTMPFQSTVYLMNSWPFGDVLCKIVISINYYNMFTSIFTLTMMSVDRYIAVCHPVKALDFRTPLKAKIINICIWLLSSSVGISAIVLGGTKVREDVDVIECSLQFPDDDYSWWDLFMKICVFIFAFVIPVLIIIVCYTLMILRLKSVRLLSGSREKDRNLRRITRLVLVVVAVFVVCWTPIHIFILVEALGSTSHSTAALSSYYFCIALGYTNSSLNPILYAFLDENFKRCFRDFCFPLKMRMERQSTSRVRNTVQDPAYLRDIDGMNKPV
T2 sequence (P32121 whole entry, further chain): as the sequence (P32121 whole entry partner) above

As for `CCCCCCCC/C=C\CCCCCCCC(=O)OC[C@@H](O)COP(=O)(O)O` [lysophosphatidic acid], in test [1], the “ChaCha beta-arrestin/TEV-release GFP reporter in HEK293T cells” value is listed as “LPAR1, which senses the fatty acid lysophosphatidic acid”.

In the case of `COC(=O)[C@@H]1C[C@H](O)C(=O)[C@H]2[C@@]1(C)CC[C@H]1C(=O)O[C@H](c3ccoc3)C[C@]21C` [Salvinorin B], the “ChaCha beta-arrestin/TEV-release GFP reporter in HEK293T cells” value in test [2] was “another evolved GPCR, the kappa opioid receptor DREADD (KORD), which senses Salvinorin B”.

In the case of `NC(=O)[C@@H]1CCCN1C(=O)[C@H](Cc1cnc[nH]1)NC(=O)[C@@H]1CCC(=O)N1` [thyrotropin-releasing hormone], the “ChaCha beta-arrestin/TEV-release GFP reporter in HEK293T cells” value in test [3] is listed as “TRHR, which senses thyrotropin-releasing hormone”.

These data come from article PMC5738360, “Engineering cell sensing and responses using a GPCR-coupled CRISPR-Cas system” (Nature Communications, 2017).
